Test results reported in publication PMC10648349, “Aromatic Diboronic Acids as Effective KPC/AmpC Inhibitors” (Molecules, 2023).
Values after ≈ are worked out from the molar mass of the structure shown. Read-outs that look alike come from different tables or passages of the source.

What was measured:
[1] = system: E. faecalis ATCC 29212; assay: direct antimicrobial activity (disc-diffusion, MIC, MBC); format: cell-based; details: Enterococcus faecalis, ATCC29212
Protocol: (§1) Direct antimicrobial activity against Gram-negative and Gram-positive bacterial strains, as well as against yeast, was examined as previously described by the disc-diffusion test, the MIC determination assay, the MBC (for bacteria), and the MFC (for yeasts) determination tests. All the above-mentioned tests were performed according to EUCAST [71, 72] and CLSI [73, 74, 75, 76, 77] recommendations. The following reference agents were used: nitrofurantoin (for Gram-negative rods), linezolid (for Gram-positive bacteria), and fluconazole (in the case of fungi). The new aromatic diboronic acids were dissolved in DMSO (Sigma, St. Louis, MO, USA). In the disc-diffusion test, the concentration of new agents was 0.4 mg per disc.

[2] = system: E. faecium ATCC 6057; assay: as above; format: cell-based; details: Enterococcus faecium, ATCC6057
Protocol: as §1

[3] = system: S. aureus ATCC 43300 MRSA; assay: as above; format: cell-based; details: Staphylococcus aureus
Protocol: as §1

[4] = system: S. aureus ATCC 6538P; assay: as above; format: cell-based; details: Staphylococcus aureus, ATCC6538P
Protocol: as §1

[5] = system: S. epidermidis ATCC 12228; assay: as above; format: cell-based; details: Staphylococcus epidermidis, ATCC12228
Protocol: as §1

[6] = system: B. subtilis ATCC 6633; assay: direct antimicrobial activity (disc-diffusion); format: cell-based; details: Bacillus subtilis, ATCC6633; 0.4 mg per disc, 9 mm disc (linezolid 0.03 mg, 6 mm disc); - no zone; read-out: Diameter of inhibition zone
Protocol: as §1

[7] = system: C. parapsilosis ATCC 22019; assay: antifungal activity (disc-diffusion, MIC, MFC); format: cell-based, Candida parapsilosis; details: Lodderomyces parapsilosis, ATCC22019; fluconazole by Etest
Protocol: as §1

[8] = system: C. guilliermondii IBA 155; assay: antifungal activity (disc-diffusion, MIC, MFC); format: cell-based, Candida guilliermondii; details: Meyerozyma guilliermondii, IBA155; fluconazole by Etest
Protocol: as §1

[9] = system: C. krusei ATCC 6258; assay: antifungal activity (disc-diffusion, MIC, MFC); format: cell-based, Candida krusei; details: Pichia kudriavzevii, ATCC6258; fluconazole by Etest
Protocol: as §1

[10] = system: C. albicans ATCC 90028; assay: antifungal activity (disc-diffusion, MIC, MFC); format: cell-based; details: Candida albicans, ATCC90028; fluconazole by Etest
Protocol: as §1

[11] = system: C. tropicalis ATCC 750; assay: antifungal activity (disc-diffusion, MIC, MFC); format: cell-based; details: Candida tropicalis, ATCC750; fluconazole by Etest
Protocol: as §1

[12] = system: C. tropicalis IBA 171; assay: antifungal activity (disc-diffusion, MIC, MFC); format: cell-based; details: Candida tropicalis, IBA171; fluconazole by Etest
Protocol: as §1

[13] = system: S. cerevisiae ATCC 9763; assay: antifungal activity (disc-diffusion, MIC, MFC); format: cell-based; details: Saccharomyces cerevisiae, ATCC9763; fluconazole by Etest
Protocol: as §1

[14] = system: E. coli 76 KPC-2(+); assay: MIC of tested agent alone, microdilution; format: cell-based; details: Escherichia coli; read-out: MIC of agent alone
Protocol: (§2) To examine the ability of tested agents to inhibit various carbapenemases and AmpC-enzymes, their synergy with antibiotics against β-lactamase-producing strains was assessed by checkerboard microdilution assay, with slight modification. Checkerboards were prepared in microtiter plates, with seven two-fold dilutions of β-lactams (1–64 mg/L) in the rows and three two-fold dilutions of tested agents and PBA (4–16 mg/L) in the columns. Tested agents’ concentrations were limited to the concentrations at which the newest commercially available BLIs (vaborbactam, relebactam, and avibactam) are used in susceptibility testing. Plates were inoculated and incubated as in the MIC microdilution assay. Parallel, MICs of tested agents and PBA alone were determined by the microdilution assay. Following the incubation, antibiotic MICs in the presence of each agent’s concentration were determined. Moreover, for the first well without growth found in each checkerboard row and column along the growth/non-growth interface, the fractional inhibitory concentration index (FICI) was calculated using the formula below:FICI = [(MIC of antibiotic in combination)/(MIC of antibiotic alone)] + [(MIC of the tested agent in combination)/(MIC of tested agent alone)].

[15] = system: E. coli 77 CMY-2(+); assay: MIC of tested agent alone, microdilution; format: cell-based; details: Escherichia coli; read-out: MIC of agent alone
Protocol: as §2

[16] = system: K. pneumoniae 81 KPC-3(+); assay: MIC of tested agent alone, microdilution; format: cell-based; details: Klebsiella pneumoniae; read-out: MIC of agent alone
Protocol: as §2

[17] = system: K. pneumoniae 83 KPC-3(+), CTX-M-3(+); assay: MIC of tested agent alone, microdilution; format: cell-based; details: Klebsiella pneumoniae; read-out: MIC of agent alone
Protocol: as §2

[18] = system: K. pneumoniae ATCC BAA-1705 KPC-2(+); assay: MIC of tested agent alone, microdilution; format: cell-based; details: Klebsiella pneumoniae, ATCCBAA1705; read-out: MIC of agent alone
Protocol: as §2

[19] = system: P. aeruginosa MUW 700 AmpC(+); assay: MIC of tested agent alone, microdilution; format: cell-based; details: Pseudomonas aeruginosa; read-out: MIC of agent alone
Protocol: as §2

[20] = system: K. pneumoniae ATCC BAA 1705 KPC-2-positive; assay: combination disc test CDT-KPC; format: cell-based; details: Klebsiella pneumoniae, BAA1705; agent 0.3 mg per disc; read-out: Diameter of inhibition zone, MEM-10 disc with agent
[21] = system: P. aeruginosa MUW 700 cAmpC-positive; assay: combination disc test CDT-AmpC; format: cell-based; details: Pseudomonas aeruginosa; agent 0.3 mg per disc; read-out: Diameter of inhibition zone, CAZ-30 disc with agent
[22] = system: E. coli 77 CMY-2-positive; assay: combination disc test CDT-AmpC; format: cell-based; details: Escherichia coli; agent 0.3 mg per disc; read-out: Diameter of inhibition zone, CAZ-30 disc with agent
[23] = system: K. pneumoniae ATCC 700603 ESBL-positive; assay: combination disc test CDT-ESBL; format: cell-based; details: Klebsiella pneumoniae, ATCC700603; agent 0.3 mg per disc; read-out: Diameter of inhibition zone, CAZ-30 disc with agent
[24] = MTT-based viability assay; format: cell-based; details: human, 72 h, read-out: Viability of MRC-5 cells (% of viable cells ± SD)
Protocol: MRC-5 human fibroblasts (ECACC) were cultured in MEME, Minimum Essential Medium Eagle (Merck) supplemented with 10% fetal bovine serum (Merck), 2 mM l-glutamine, antibiotics (100 U/mL penicillin, 100 μg/mL streptomycin, Merck) and 1% non-essential amino acids (Merck). Cells were grown in 75 cm^2 cell culture flasks (Sarstedt) in a humidified atmosphere of CO2/air (5/95%) at 37 °C. MTT-based viability assay was conducted as described previously. Optical densities were measured at 570 nm using a BioTek microplate reader. All measurements were carried out in three replicates, and the results were expressed as a percent of viable cells versus control cells.

[25] = 0.4 mg per disc, 9 mm disc (linezolid 0.03 mg, 6 mm disc), - no zone, read-out: Diameter of inhibition zone

MIC [1]	MIC [2]	MIC [3]	MIC [4]	MIC [5]	MIC [7]	MIC [8]	MIC [9]	MIC [10]	MIC [11]	MIC [12]	MIC [13]	MIC [14]	MIC [15]	MIC [16]	MIC [17]	MIC [18]	MIC [19]	Compound	zone of inhibition at 0.4 mg/disc [6]	zone of inhibition at 300 µg/disc [20]	further results
200 µg/mL (≈ 841 µM)	200 µg/mL (≈ 841 µM)	400 µg/mL (≈ 1680 µM)	200 µg/mL (≈ 841 µM)	200 µg/mL (≈ 841 µM)	> 400 µg/mL	200 µg/mL (≈ 841 µM)	50 µg/mL (≈ 210 µM)	100 µg/mL (≈ 421 µM)	> 400 µg/mL	> 400 µg/mL	200 µg/mL (≈ 841 µM)	> 400 µg/mL	> 400 µg/mL	> 400 µg/mL	> 400 µg/mL	> 400 µg/mL	> 400 µg/mL	OB(O)c1c(F)c(F)c(F)c(F)c1B(O)O [3d]	12 mm	6 mm	zone of inhibition at 0.4 mg/disc [1, 25]: 12 mm; zone of inhibition at 0.4 mg/disc [2, 25]: 16 mm; zone of inhibition at 0.4 mg/disc [3, 25]: 18 mm; zone of inhibition at 0.4 mg/disc [4, 25]: 20 mm; zone of inhibition at 0.4 mg/disc [5, 25]: 21 mm; zone of inhibition at 300 µg/disc [21]: 14 mm; zone of inhibition at 300 µg/disc [22]: 21 mm; zone of inhibition at 300 µg/disc [23]: 15 mm; viability at 72 h, 12.5 mg/L ([24]; MRC-5 human fibroblasts): 91.3 ± 7.4%; viability at 72 h, 25 mg/L ([24]; MRC-5 human fibroblasts): 100 ± 7.7%; viability at 72 h, 50 mg/L ([24]; MRC-5 human fibroblasts): 77.7 ± 15.5%
> 400 µg/mL	400 µg/mL (≈ 2040 µM)	> 400 µg/mL	> 400 µg/mL	> 400 µg/mL	> 400 µg/mL	> 400 µg/mL	> 400 µg/mL	> 400 µg/mL	> 400 µg/mL	> 400 µg/mL	> 400 µg/mL	> 400 µg/mL	> 400 µg/mL	> 400 µg/mL	> 400 µg/mL	> 400 µg/mL	> 400 µg/mL	COc1c(B(O)O)cccc1B(O)O [2g]		6 mm	zone of inhibition at 300 µg/disc [21]: 19 mm; zone of inhibition at 300 µg/disc [22]: 20 mm; zone of inhibition at 300 µg/disc [23]: 13 mm; viability at 72 h, 12.5 mg/L ([24]; MRC-5 human fibroblasts): 111 ± 9.7%; viability at 72 h, 25 mg/L ([24]; MRC-5 human fibroblasts): 117 ± 3.7%; viability at 72 h, 50 mg/L ([24]; MRC-5 human fibroblasts): 103 ± 5.1%

Compound	MIC [1]	MIC [2]	MIC [3]	MIC [4]	MIC [5]	MIC [7]	MIC [8]	MIC [9]	MIC [10]	MIC [11]	MIC [12]	MIC [13]	MIC [14]	MIC [15]	MIC [16]	MIC [17]	MIC [18]	MIC [19]	zone of inhibition at 0.4 mg/disc [6]	zone of inhibition at 300 µg/disc [20]	further results
C[Si](C)(C)c1cc(B(O)O)c([Si](C)(C)C)cc1B(O)O [1k]	> 100 µg/mL	100 µg/mL (≈ 322 µM)	100 µg/mL (≈ 322 µM)	100 µg/mL (≈ 322 µM)	100 µg/mL (≈ 322 µM)	> 100 µg/mL	> 100 µg/mL	> 100 µg/mL	> 100 µg/mL	> 100 µg/mL	> 100 µg/mL	> 100 µg/mL							11 mm		viability at 72 h, 12.5 mg/L [24]: 84.3 ± 0.9%; viability at 72 h, 25 mg/L [24]: 74.2 ± 3.5%; viability at 72 h, 50 mg/L [24]: 28.9 ± 1%
